Measurements published in patent publication US20140243239A1, “MULTIPLEXED KINASE INHIBITOR BEADS AND USES THEREOF” (University of North Carolina at Chapel Hill, priority 2011, published 2014).

What was measured:
Format in all cases: cell-based, human
[1] = test system: SUM159 cells; assay: SUM159 cell growth (Cell-Titer Glo, cell counts); settings: 5 μM MEK inhibitor (FIG. 2A)
Experimental: (§1) Cell Culture: MDA-MB-231 cells were grown in DMEM/F12 supplemented with 10% FBS. SUM-159 cells were grown in DMEM/F12 supplemented with 10% FBS 1 μg/mL hydrocortisone, and 5 μg/mL insulin. SUM159-R cells were continually grown in the presence of 5 μM AZD6244. For SILAC labeling, cells were grown for five doublings in arginine- and lysine-depleted media (as above) supplemented with either unlabeled L-arginine (42 mg/L) and L-lysine (71 mg/L) or equimolar amounts of heavy isotope labeled [13C6,15N4]arginine (Arg10) and [13C6]lysine (Lys6) (Cambridge Isotope Laboratories). Proliferation was quantified using Cell-Titer Glo Luminescent Cell Viability Assay (Promega). Fresh media containing DMSO or kinase inhibitors was added daily and experiments were performed in triplicate.

[2] = test system: MDA-MB-231 cells; assay: MDA-MB-231 cell growth (Cell-Titer Glo); settings: 5 μM MEK inhibitor (FIG. 9A)
Experimental: as §1

[3] = test system: RTKs; assay: RTK tyrosine phosphorylation/expression in SUM159 cells (RTK arrays, western blot); settings: 5 μM AZD6244; 50 nM BEZ235 (FIG. 3H)
Experimental: Western blotting and RTK arrays: Western blotting and RTK array analysis were performed as previously described (Amin et al., 2010). Amin et al. 2010 Sci Transl Med 2, 16ra17. Detailed methods and antibodies are provided in Supplemental Experimental Procedures.
Western blotting: Proteins from cell lysates were separated by SDS-PAGE chromatography, transferred to nitrocellulose membranes, and probed with the indicated primary antibodies. Antibodies recognizing pAKT (S473), pAKT (T308), AURA, pAXL (Y702), AXL, c-Myc, DDR1, EGFR, pERK1/2 (T202/Y204), pHER3 (Y1197), MAX, pMEK1/2 (S217/S221), MEK1/2, MKP3, pP70S6K (T389), pPDGFRβ (Y751), pPDGFRβ (Y1009), pPDGFR (Y857), PDGFRβ, pRAF (S338), pRSK1 (T359/S363), pVEGFR2 (Y1175), VEGFR2 were obtained from Cell Signaling Technology. Antibodies for Cyclin A2, Cyclin B1, Cyclin D1, ERK2, RAF, and pRAF (S259) were obtained from Santa Cruz Biotechnology. The antibody recognizing Bim was obtained from Chemicon. The antibody recognizing p-c-Myc (S62) was obtained from Abeam. Secondary HRP-anti-rabbit and HRP-anti-goat secondary antibodies were from Jackson Immunoresearch Laboratories and Santa Cruz Biotechnology, respectively. Western blots were visualized by incubation with SuperSignal West Pico Chemiluminescent Substrate (Thermo Scientific).
RTK arrays: Cells were harvested in RTK array lysis buffer containing 20 mM Tris-HCl (pH 8.0), 1% NP-40, 10% glycerol, 137 mM NaCl, 2 mM EDTA, 1×EDTA-free protease inhibitor cocktail (Roche), and 1% each of phosphatase inhibitor cocktails 1 and 2 (Sigma). After incubating on ice for 20 minutes, cell debris was pelleted at 4° C. Lysates (500 μg protein) were applied to R&D Systems Proteome Profiler™ Human Phospho-RTK antibody arrays. Washing and secondary antibody steps were performed according to the manufacturer“s instructions. RTK arrays were visualized by SuperSignal West Pico Chemiluminescent Substrate (Thermo Scientific).

Cn1cnc2c(F)c(Nc3ccc(Br)cc3Cl)c(C(=O)NOCCO)cc21 [AZD6244]
growth of SUM159 cells [1]: inhibited growth | growth of MDA-MB-231 cells [2]: inhibited growth | RTK phosphorylation profile [3]: induced PDGFRβ, VEGFR2 and AXL phosphorylation
